# Measured values taken from ChEMBL document CHEMBL1255199, “Endochin optimization: structure-activity and structure-property relationship studies of 3-substituted 2-methyl-4(1H)-quinolones with antimalarial activity” (J Med Chem, 2010).
# pEC50: −log10 of the molar value.
# Assays:
# J774 = assay: Cytotoxicity against mouse J774 cells; format: cell-based
# in vitro = conditions: mouse, J774 cells
# Description: Cytotoxicity index, ratio of EC50 for mice (Mus musculus) J774 cells to EC50 for chloroquine, mefloquine, pyrimethamine and atovaquone-resistant Plasmodium falciparum TM90-C2B
# [1] = Passive transcellular permeability of the compound at pH 7.4 by PAMPA; format: ADME; conditions: read-out: permeability
# [2] = Lipophilicity, log D of the compound at pH 7.4; conditions: buffer
# physchem = conditions: aqueous, pH 7.4
# Description: Aqueous solubility of the compound at pH 7.4 by HPLC analysis
# [3] = Passive transcellular permeability of the compound at pH 4 by PAMPA; format: ADME; conditions: for Papp: read-out: permeability
# Plasmodium falciparum [4] = assay: Antimalarial activity against chloroquine, mefloquine, pyrimethamine and atovaquone-resistant Plasmodium falciparum TM90-C2B infected in human A+ erythrocytes after 72 hrs by SYBR Green I assay; format: functional, organism-based
# Plasmodium falciparum [5] = assay: Antimalarial activity against chloroquine and pyrimethamine-resistant Plasmodium falciparum W2 infected in human A+ erythrocytes after 72 hrs by SYBR Green I assay; format: functional, organism-based; conditions: W2, 72 h
# [6] = Half life in mouse liver microsomes; format: ADME, Microsome
# [7] = Half life in human liver microsomes; format: ADME, Microsome
Structure (SMILES),pEC50 (J774),selectivity ratio (in vitro),Papp [1] [×10⁻⁶ cm/s],logD [2],solubility (physchem) [µM],Papp [3] [×10⁻⁶ cm/s],pEC50 (Plasmodium falciparum [4]),pEC50 (Plasmodium falciparum [5]),permeability [3] [×10⁻⁶ cm/s],half-life [6] [min],half-life [7] [min]
Cc1[nH]c2cc(Cl)cc(Cl)c2c(=O)c1-c1ccccc1,< 4.48,> 9.5,320,2.72,5,460,5.46,5.67,,,
CCc1c(C)[nH]c2cc(OC)c(F)cc2c1=O,5.03,58.3,19.1,1.2,< 2,,6.79,6.43,22.9,,
CCc1c(C)[nH]c2cc(OC)c(Cl)cc2c1=O,4.72,689,57.3,2.43,10,96.4,7.56,7.32,,28.4,33.8
CCc1c(C)[nH]c2cc(OC)c(Br)cc2c1=O,< 4.47,> 933,75.1,1.7,2,81.9,7.44,6.75,,,
COc1cc2[nH]c(C)c(C)c(=O)c2cc1Cl,4.91,449,59.2,1.86,5,37,7.56,7.25,,,
COc1cc2[nH]c(C)c(C(C)C)c(=O)c2cc1Cl,4.66,112,187,2.84,> 20,281,6.71,6.95,,,
COc1cc2[nH]c(C)cc(=O)c2cc1Cl,< 4.35,> 24.1,25.2,1.95,2,11.9,5.73,5.50,,62.4,161
COc1cccc2[nH]c(C)c(-c3ccccc3)c(=O)c12,< 4.42,> 7.4,333,1.63,> 20,24.4,5.29,5.09,,,
Cc1[nH]c2cccc(Cl)c2c(=O)c1Cc1ccccc1,< 4.45,> 6.7,251,2.65,2,244,5.28,6.20,,,
Cc1[nH]c2ccc(Cl)cc2c(=O)c1Cc1ccccc1,< 4.45,> 10.7,415,2.79,< 2,422,5.48,5.61,,,
Cc1[nH]c2cc(Cl)ccc2c(=O)c1Cc1ccccc1,< 4.45,> 2.2,392,2.69,< 2,341,4.80,5.66,,,
Cc1[nH]c2c(Cl)cccc2c(=O)c1Cc1ccccc1,< 4.45,> 4,412,2.78,5,430,< 5.05,< 5.05,,,
Cc1[nH]c2cccc(Cl)c2c(=O)c1-c1ccccc1,< 4.43,> 7.8,99.6,1.88,10,91,5.32,5.30,,,
Cc1[nH]c2ccc(Cl)cc2c(=O)c1-c1ccccc1,< 4.43,> 47.7,108,2.43,5,111,6.11,6.61,,,
Cc1[nH]c2c(Cl)cccc2c(=O)c1-c1ccccc1,< 4.43,> 4,165,2.6,5,158,< 5.03,< 5.03,,,
Cc1[nH]c2ccc(Cl)c(Cl)c2c(=O)c1-c1ccccc1,< 4.48,> 10.2,192,2.83,< 2,285,5.49,6.18,,,
Cc1[nH]c2c(Cl)cc(Cl)cc2c(=O)c1-c1ccccc1,< 4.48,> 4,232,3.32,< 2,162,< 5.09,< 5.09,,,
COc1cccc2[nH]c(C)c(Cc3ccccc3)c(=O)c12,4.95,5.33,158,2.11,> 20,69.8,5.68,5.19,,,
COc1ccc2[nH]c(C)c(Cc3ccccc3)c(=O)c2c1,< 4.63,> 1,188,2.53,2,167,4.62,< 5.05,,,
COc1ccc2c(=O)c(Cc3ccccc3)c(C)[nH]c2c1,< 4.45,> 25.9,240,2.52,5,200,5.86,6.13,,,
COc1cccc2c(=O)c(Cc3ccccc3)c(C)[nH]c12,< 4.45,> 6.5,125,2.24,> 20,164,< 5.26,< 5.65,,,
COc1cc2[nH]c(C)c(-c3ccccc3)c(=O)c2cc1F,< 4.45,> 425,124,1.72,5,192,7.08,6.78,,,
COc1cc2[nH]c(C)c(-c3ccccc3)c(=O)c2cc1Cl,< 4.48,> 2170,48.3,1.65,5,105,7.82,7.58,,21.3,128
COc1cc2[nH]c(C)c(-c3ccccc3)c(=O)c2cc1Br,< 4.54,> 1160,330,2.2,< 2,306,7.60,7.10,,,
CCCCCCCc1c(C)[nH]c2cc(OC)c(Cl)cc2c1=O,< 4.43,> 10500,< 0.01,< 3.83,< 2,< 0.01,8.53,7.91,,,
COc1cc2[nH]c(C)c(C3CCCCC3)c(=O)c2cc1Cl,< 4.49,> 82.3,630,3.04,5,,6.40,6.63,1235.85,,
C=C(CCCCC)c1c(C)[nH]c2cc(OC)c(Cl)cc2c1=O,4.72,1280,755,3.58,2,768,7.83,7.40,,,
COc1cc2[nH]c(C)c(/C=C/C(=O)OC(C)(C)C)c(=O)c2cc1Cl,< 4.54,> 533,261,1.81,5,249,7.27,7.21,,43.9,60.3
CCCCCCCc1c(C)nc2cc(OC)ccc2c1O,< 4.46,> 747,679,3.69,2,,7.33,8.07,1019.9,7.9,10.2
